# Results reported in patent US6515197B1, “Transgenic mouse expressing a polynucleotide encoding a human ataxin-2 polypeptide” (Cedars-Sinai Medical Center, priority 2000, dated 2003).
# Test system: proteasomal pathway
# Assay: lactacystin treatment of 293T cells transfected with SCA2 constructs, western blot
# Format: cell-based
# Method: To further confirm that the 42 kD fragment was generated preferably by ataxin-2 with an expanded polyQ tract, and to investigate whether mutant ataxin-2 was ubiquitinated, 293T cells were transfected with pEGFP-SCA2(Q22) or pEGFP-SCA2(Q58), followed by treatment with lactacystin for 24 hours to inhibit the proteasomal pathway. Briefly, to generate GFP fusion with SCA2, a full-length SCA2 cDNA including nucleotides 145 to 4,481 (Pulst et al., Nature Genet., 14:269-276 (1996)) was assembled in the pBluescript vector with 22 or 58 CAG repeats. To generate ataxin-2 expression plasmids, the full-length SCA2 cDNA containing either the 22 or 58 CAG repeat was shuttled into the pEGFPC2 (Clontech; Palo Alto Calif.) or pcDNA vectors (Invitrogen; Carlsbad Calif.). These constructs were named pEGFP-SCA22, pEGFP-SCA58, pcDNA-SCA22 or pcDNA-SCA58.
# Transient expression of pEGFP-SCA2 constructs was analyzed in 293T cells. To investigate ubiquitination of ataxin-2, 293T cells growing at 60% confluency in 100-mm Petri dishes were transfected with either pEGFP-SCA2 or pcDNA-SCA2 constructs (10 μg) containing either 22 or 58 CAG repeats. Transfected cells were grown overnight and then treated with culture medium with or without lactacystin (10 μM) for 24 h. Cells were incubated with triple detergent buffer (0.5% sodium dodecyl sulfate (SDS), 1% Triton-X 100, 0.5% deoxycholate, 100 mM Tris-HCl, pH 8.0, 150 mM NaCl, and Sigma mammalian protease inhibitors cocktail (Sigma; St. Louis Mo.)) for 1 h on ice with occasional vortexing. Protein extracts were centrifuged at maximum speed in an Eppendorf microfuge at 4° C. for 30 min, and pellets were resuspended in triple detergent buffer. Both protein extract and pellet suspension were stored at −70° C. For western-blot analysis, 100 μg total protein extract per lane was mixed with SDS-polyacrylamide gel electrophoresis (PAGE) sample buffer and incubated for 2 h at 37° C. before loading on to a 4-15% SDS-PAGE gradient gel. Western blots were detected with SCA2A, 1C2 and ubiquitin antibodies.
# Western blots were performed on transfected 293 cell protein extracts and insoluble pellets using the GFP or ubiquitin antibody. Untreated cells served as controls. The GFP antibody detected the full-length GFP-ataxin-2 with Q22 and Q58 at 200 kD and an additional band at 70 kD in 293T cells transfected with pEGFP-SCA2(Q58). Neither the 70 kD nor the 200 kD proteins were detected in untransfected 293T protein extracts.
# To investigate whether the GFP fusion caused any interference with ubiquitin conjugation, 293T cells were transfected with pcDNA-SCA2(Q22) or pcDNA-SCA2(58) and treated with lactacystin.
smiles,measurement,setting,value
CC(=O)N[C@@H](CSC(=O)[C@]1([C@@H](O)C(C)C)NC(=O)[C@H](C)[C@@H]1O)C(=O)O [lactacystin],levels of GFP-tagged ataxin-2,"293T cells transfected with pEGFP-SCA2(Q22) or (Q58), lactacystin 10 μM for 24 h, versus untreated cells, GFP antibody",increased levels
same,levels of ubiquitin-conjugated protein complexes,"293T cells transfected with pEGFP-SCA2(Q22) or (Q58), lactacystin 10 μM for 24 h, versus untreated cells, ubiquitin antibody",increased levels
same,total amount of ataxin-2(Q58) (p180),"293T cells transfected with pcDNA-SCA2(58), lactacystin-treated, 1C2 or ubiquitin antibodies",increased
same,formation of large ataxin-2 aggregates,"293T cells transfected with pcDNA-SCA2(Q22) or pcDNA-SCA2(58), lactacystin-treated, western blot",no large ataxin-2 aggregates were found
